Earlier results, collected in patent publication US20100040600A1, “Agents for Promoting the Growth of Hematopoietic Stem Cells” (CHUGAI SEIYAKU KABUSHIKI KAISHA, priority 2006, published 2010).
Numbered stars: 1 amine (or outer) side, 2 acyl side, 3 side chain; on linkers, the order of the positions; unused ones are H or OH. Bridge positions count the residues as written; N and C are the ends. Square brackets hold non-standard residues; d marks the D form. Peptide text beside a SMILES is read from it. I, II: the chains in the order shown. 2Nal = N[CH](Cc1ccc2ccccc2c1)C(=O)O; X1 = NC(N)NCCCC(N[*:1])C(=O)[*:2]; NMeI = CC[CH](C)[CH](NC)C(=O)O; Sar = CNCC(=O)O

Columns and labels:
dog receptors = settings: cited from earlier work
mouse receptors = target: T1, mouse receptors (Mus musculus, UniProt Q08351); settings: cited from earlier work
T1 sequence (Q08351 26-625): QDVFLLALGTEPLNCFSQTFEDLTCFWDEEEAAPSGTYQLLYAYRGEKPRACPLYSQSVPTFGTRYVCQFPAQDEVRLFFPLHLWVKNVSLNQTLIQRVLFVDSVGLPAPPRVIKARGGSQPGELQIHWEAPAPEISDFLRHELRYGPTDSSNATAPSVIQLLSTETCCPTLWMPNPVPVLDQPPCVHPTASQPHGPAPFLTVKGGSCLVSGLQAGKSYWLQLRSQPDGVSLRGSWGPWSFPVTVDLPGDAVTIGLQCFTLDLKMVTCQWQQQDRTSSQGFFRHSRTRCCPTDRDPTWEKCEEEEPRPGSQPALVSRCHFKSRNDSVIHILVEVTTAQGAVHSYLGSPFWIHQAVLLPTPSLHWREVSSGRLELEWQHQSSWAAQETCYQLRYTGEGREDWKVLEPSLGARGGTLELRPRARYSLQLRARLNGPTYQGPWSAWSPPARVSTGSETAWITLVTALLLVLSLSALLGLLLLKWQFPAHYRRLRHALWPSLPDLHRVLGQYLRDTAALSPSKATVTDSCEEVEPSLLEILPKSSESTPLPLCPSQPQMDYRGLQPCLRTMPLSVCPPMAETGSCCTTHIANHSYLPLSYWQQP

rat receptors = settings: cited from earlier work
c-mpl [1] = settings: cited from earlier work
Hu BM CD34 = settings: in vitro activity; read-out: Hu BM CD34 differentiation assay: EC50; cited from earlier work
c-mpl [2] = settings: cited from earlier work; remark: listed apart in the source
c-mpl [3] = target: T2, c-mpl (Homo sapiens, UniProt P40238); settings: cited from earlier work
T2 sequence (P40238 26-635): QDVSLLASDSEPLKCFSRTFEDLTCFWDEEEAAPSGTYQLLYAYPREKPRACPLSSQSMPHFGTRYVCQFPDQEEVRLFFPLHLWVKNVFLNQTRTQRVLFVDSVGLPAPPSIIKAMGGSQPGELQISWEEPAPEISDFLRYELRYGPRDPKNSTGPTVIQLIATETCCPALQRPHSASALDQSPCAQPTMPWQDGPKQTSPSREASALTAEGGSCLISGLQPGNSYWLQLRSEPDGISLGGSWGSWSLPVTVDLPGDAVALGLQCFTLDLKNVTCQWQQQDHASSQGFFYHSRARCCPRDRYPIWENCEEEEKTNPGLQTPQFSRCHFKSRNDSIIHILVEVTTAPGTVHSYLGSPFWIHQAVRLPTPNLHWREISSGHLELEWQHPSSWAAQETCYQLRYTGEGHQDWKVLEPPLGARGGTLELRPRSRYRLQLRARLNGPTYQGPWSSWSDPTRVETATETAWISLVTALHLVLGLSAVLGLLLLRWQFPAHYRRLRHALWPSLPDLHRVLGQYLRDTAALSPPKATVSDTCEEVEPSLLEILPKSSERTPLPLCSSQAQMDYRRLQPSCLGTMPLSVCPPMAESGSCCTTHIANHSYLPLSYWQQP

[4] = cited from earlier work
[5] = target: T3, hu c-mpl transmembrane domain (Homo sapiens, UniProt P40238); settings: cited from earlier work
T3 sequence (P40238 26-635): T2 sequence (P40238 26-635)

c-mpl [6] = settings: cited from earlier work; remark: listed apart in the source
c-mpl [7] = target: T4, c-mpl (Mus musculus, UniProt Q08351); settings: cited from earlier work
T4 sequence (Q08351 26-625): T1 sequence (Q08351 26-625)

In the case of `CCC(C)C(N)C(=O)NC(CCC(=O)O)C(=O)NCC(=O)N1CCCC1C(=O)NC(C(=O)NC(CC(C)C)C(=O)NC(CCCNC(=N)N)C(=O)NC(CCC(N)=O)C(=O)NC(Cc1ccc2ccccc2c1)C(=O)NC(CC(C)C)C(=O)NC(C)C(=O)NC(C)C(=O)NC(CCCNC(=N)N)C(=O)N(C)CC(=O)NC(CCCCNC(=O)CN(C)C(=O)C(CCCNC(N)N)NC(=O)C(C)NC(=O)C(C)NC(=O)C(CC(C)C)NC(=O)C(Cc1ccc2ccccc2c1)NC(=O)C(CCC(N)=O)NC(=O)C(CCCNC(=N)N)NC(=O)C(CC(C)C)NC(=O)C(NC(=O)C1CCCN1C(=O)CNC(=O)C(CCC(=O)O)NC(=O)C(NC)C(C)CC)C(C)O)C(N)=O)C(C)O` (centres unmarked) [peg-TPOmp] (I: H-IEGPTLRQ[2Nal]LAAR[Sar]K-NH2 / II: H-[NMeI]EGPTLRQ[2Nal]LAA[X1][Sar]; amide I:15-II:C; configuration not given here), the “cross-reactivity to dog receptors” value (dog receptors) is listed as “Cross-reactive to mouse, rat, and dog receptors”, the “cross-reactivity to mouse receptors” value (mouse receptors) is listed as “Cross-reactive to mouse, rat, and dog receptors” and the “cross-reactivity to rat receptors” value (rat receptors) is listed as “Cross-reactive to mouse, rat, and dog receptors”.

In the case of `CC1=NN(c2ccc(C)c(C)c2)C(=O)/C1=N\Nc1cccc(-c2cccc(C(=O)O)c2)c1O` [SB297115/Eltrombopag], the “cross-reactivity: chimpanzee” value (c-mpl [1]) is listed as “Cross-reactivity: chimpanzee”, the EC50 (Hu BM CD34) is listed as about 100 nM and the “cross-reactivity: cynomolgus macaques” value (c-mpl [2]) is listed as “No cross-reactivity: cynomolgus macaques, cat, mouse, etc”. For the same molecule, the species specificity (c-mpl [3]) was “High species specificity”, the T1/2 [4] was “T1/2 = 12 hr” and the Binding site [5] was “Binding site: a hu c-mpl transmembrane domain (His499, Thr496)”. The “cross-reactivity: cat” value (c-mpl [6]) was “No cross-reactivity: cynomolgus macaques, cat, mouse, etc” and the “cross-reactivity: mouse” value (c-mpl [7]) was “No cross-reactivity: cynomolgus macaques, cat, mouse, etc”.
